Data on three compounds can be found in ChEMBL document CHEMBL5505952, “Targeting SARS-CoV-2 entry processes: The promising potential and future of host-targeted small-molecule inhibitors” (Eur J Med Chem, 2024).

The subject of assay [1] is SARS-CoV-2. It is filed as functional, organism-based. The following applies: Severe acute respiratory syndrome coronavirus 2, Vero C1008.
Assay [2] addresses Procathepsin L (Homo sapiens, UniProt P07711). Briefly: Inhibition of human Cathepsin L using Cbz-Phe-Arg-AMC as substrate measured for 10 mins by fluorescence based analysis.
Assay [3] has as its system SARS-CoV-2. The assay can be described thus: microbe, parasite or virus in culture. The following applies: Severe acute respiratory syndrome coronavirus 2, Huh-7.
For assay [4], the system named is SARS-CoV-2. Briefly: microbe, parasite or virus in culture. To be noted: Severe acute respiratory syndrome coronavirus 2, A549-ACE2.
Assay [5] concerns SARS-CoV-2. Briefly: microbe, parasite or virus in culture. To be noted: Severe acute respiratory syndrome coronavirus 2, B.1, VeroE6/TMPRSS2, 48 h.
Assay [6] deals with Dengue virus. It is filed as functional, organism-based. To be noted: Huh-7, 48 h.
The subject of assay [7] is Ebolavirus. Briefly: Antiviral activity against Ebola virus infected in human HeLa cells assessed as reduction in viral cytopathic effect. It is filed as functional, organism-based. The following applies: Orthoebolavirus.

Procathepsin L, sequence (P07711 whole entry): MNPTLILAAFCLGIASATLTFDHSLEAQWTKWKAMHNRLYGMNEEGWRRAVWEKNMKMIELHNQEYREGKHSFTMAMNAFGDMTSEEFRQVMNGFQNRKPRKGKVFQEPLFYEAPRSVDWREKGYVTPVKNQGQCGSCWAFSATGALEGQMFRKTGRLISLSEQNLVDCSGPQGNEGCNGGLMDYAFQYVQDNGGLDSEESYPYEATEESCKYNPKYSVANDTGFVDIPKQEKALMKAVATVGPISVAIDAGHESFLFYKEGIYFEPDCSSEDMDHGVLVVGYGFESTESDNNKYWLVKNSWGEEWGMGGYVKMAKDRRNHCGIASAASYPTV

Compound `CC(CN(C)C)CN1c2ccccc2Sc2ccccc21` (configuration not stated) [METHYLPROMAZINE] showed a concentration for a half-maximal effect (EC50) in assay [1] of 2.42 µM.

With `CCCCCCCCCC(=O)N[C@@H](Cc1c[nH]c2ccccc12)C(=O)N[C@H](CC(N)=O)C(=O)N[C@@H](CC(=O)O)C(=O)N[C@@H]1C(=O)NCC(=O)N[C@@H](CCCN)C(=O)N[C@@H](CC(=O)O)C(=O)N[C@H](C)C(=O)N[C@@H](CC(=O)O)C(=O)NCC(=O)N[C@H](CO)C(=O)N[C@@H]([C@H](C)CC(=O)O)C(=O)N[C@@H](CC(=O)c2ccccc2N)C(=O)O[C@@H]1C`, the IC50 in assay [2] came out at 7.87 µM. The EC50 in assay [3] came out at 207 µM; in assay [4], 98.8 µM; in assay [5], 226 µM.

With `N#Cc1ccc(-c2cnc3[nH]cc(NC(=O)c4cccnc4)c3c2)cc1`, the 50% effective concentration (EC50) is 8 µM in assay [6] and greater than 10 µM in assay [7].
